Columns and labels:
[1] = molecular target: T1, narcotic receptors (cocaine derivative [^3 H]WIN35,428 binding, striatum) (Rattus norvegicus, UniProt P23977); assay: Ex vivo binding inhibition assay ([^3 H]WIN35,428, striatum after intraperitoneal administration); format: in vivo, male Wistar rats; conditions: 30 mg/kg intraperitoneally, 30 minutes after administration, [^3 H]WIN35,428 0.5 nM; control (saline) 0%
T1 construct: from tissue; host or cells: striatum of male Wistar rats, crude membranes
T1 sequence (P23977 whole entry): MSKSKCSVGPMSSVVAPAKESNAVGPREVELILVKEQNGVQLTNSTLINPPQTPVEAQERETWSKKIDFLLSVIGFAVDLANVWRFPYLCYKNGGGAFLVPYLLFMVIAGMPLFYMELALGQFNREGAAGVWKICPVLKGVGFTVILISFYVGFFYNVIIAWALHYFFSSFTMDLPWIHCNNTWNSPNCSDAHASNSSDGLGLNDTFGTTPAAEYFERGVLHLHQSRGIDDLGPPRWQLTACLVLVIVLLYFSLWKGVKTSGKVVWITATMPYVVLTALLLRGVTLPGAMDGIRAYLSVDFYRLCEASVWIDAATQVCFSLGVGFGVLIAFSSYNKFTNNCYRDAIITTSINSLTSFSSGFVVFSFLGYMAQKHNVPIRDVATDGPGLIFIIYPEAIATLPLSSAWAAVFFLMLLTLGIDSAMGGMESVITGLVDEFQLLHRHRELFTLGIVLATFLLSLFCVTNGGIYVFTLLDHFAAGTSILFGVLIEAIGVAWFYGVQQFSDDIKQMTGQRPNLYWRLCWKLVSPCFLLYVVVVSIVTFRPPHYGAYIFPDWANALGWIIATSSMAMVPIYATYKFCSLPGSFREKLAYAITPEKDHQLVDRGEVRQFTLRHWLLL
Description: Ex vivo binding inhibition assay
(§1) To each male Wistar rat, 30 mg/kg of compound 15 was intraperitoneally administered. Thirty minutes after administration, rats were decapitated. From each rat, striatum was immediately removed, and its wet weight was measured. The tissue of striatum was homogenized using a polytron together with a 10-fold amount of 50 mM Tris-HCl buffer (pH 7.4) while being cooled on ice. The homogenate was centrifugally separated (20,000 G, 20 minutes, 4° C.), and the resulting pellet was suspended in a mixture of a 20-fold amount (based on the original tissue weight) of 50 mM Tris-HCl and 100 mM NaCl buffer (pH 7.4).
The contents were allowed to react for 2 hours on ice (0-4° C.). Reaction was terminated by passing the contents through a glass filter (GF/B, product of Whatman) which had been immersed in 0.1% BSA solution for at least 40 minutes in advance while aspiration was carried out using a cell harvester, followed by washing three times with 5 ml of 50 mM Tris HCl buffer (pH 7.4). The filter and 10 ml of aquazol 2 (product of NEN) were placed in a vial and allowed to stand overnight. Radioactivity was measured using a liquid scintillation counter. […] Specific binding amounts were determined by subtracting the nonspecific binding amounts from the total binding amounts. Control accounts for the sole use of a saline solution administered to rats intraperitoneally. […]

[2] = molecular target: T2, (cocaine derivative [^3 H]WIN35,428 binding, striatum) (Rattus norvegicus, UniProt P23977); assay: In vitro binding inhibition assay against a cocaine derivative ([^3 H]WIN35,428), striatum crude membrane; parameters: species or system male Wistar rats; conditions: [^3 H]WIN35,428 0.5 nM, 2 hours on ice (0-4° C.), pH 7.4, Hill plotting, read-out: 50% Inhibition concentration
T2 construct: from tissue; host or cells: striatum of male Wistar rats, crude membranes
T2 sequence (P23977 whole entry): as above
Description: as §1, with “Male” for “To each male”, “Wistar” for “Wistar rat, 30 mg/kg of compound 15 was intraperitoneally administered. Thirty minutes after administration,”, “(38,700” for “(20,000”, “40-fold” for “20-fold”
The contents were allowed to react for 2 hours on ice (0-4° C.). Reaction was terminated by passing the contents through a glass filter (GF/B, product of Whatman) which had been immersed in 0.1% BSA solution for at least 40 minutes in advance while aspiration was carried out using a cell harvester, followed by washing three times with 5 ml of 50 mM Tris HCl buffer (pH 7.4). The filter and 10 ml of aquazol 2 (product of NEN) were placed in a vial and allowed to stand overnight. Radioactivity was measured using a liquid scintillation counter. […] Specific binding amounts were determined by subtracting the nonspecific binding amounts from the total binding amounts. Fifty(50)% inhibition concentrations were calculated using Hill plotting.

| Compound | binding inhibitory ratio [1] [%] | IC50 [2] [µM] |
| --- | --- | --- |
| OC(CNc1ccccc1)CN1CCN(CCCC(c2ccc(F)cc2)c2ccc(F)cc2)CC1 (single isomer, unassigned) [Compound 15, (--)-1-[4,4-bis(4-fluorophenyl)butyl]-4-(2-hydroxy-3-phenylaminopropyl)-piperazine.2HCl] | 86.1 | 0.0376 |
| OC(CNc1ccccc1)CN1CCN(CCCC(c2ccc(F)cc2)c2ccc(F)cc2)CC1 (single isomer, unassigned; (+)) [Compound 16, (+)-1-[4,4-bis(4-fluorophenyl)butyl)-4-(2-hydroxy-3-phenylaminopropyl)-piperazine.2HCl] |  | 0.0526 |
| OC(CNc1ccccc1)CN1CCN(CCCC(c2ccc(F)cc2)c2ccc(F)cc2)CC1 (stereo not shown) [Compound 1, 1-[4,4-bis(4-fluorophenyl)-butyl]-4-(2-hydroxy-3-phenylaminopropyl)piperazine.2HCl] |  | 0.0448 |
| OC(CNc1ccccc1)CN1CCN(C(c2ccc(F)cc2)c2ccc(F)cc2)CC1 (stereo not shown) [Compound 2, 1-[bis(4-fluorophenyl)-methyl]-4-[2-hydroxy-3-phenylaminopropyl)-piperazine.2HCl] |  | 0.0516 |
| OC(CNCc1ccccc1)CN1CCN(CCCC(c2ccc(F)cc2)c2ccc(F)cc2)CC1 (stereo not shown) [Compound 3, 1-[4,4-bis(4-fluorophenyl)-butyl]-4-(2-hydroxy-3-benzylaminopropyl)-piperazine.2HCl] |  | 0.0317 |
| CC(=O)N(CC(O)CN1CCN(CCCC(c2ccc(F)cc2)c2ccc(F)cc2)CC1)c1ccccc1 (stereo not shown) [Compound 4] |  | 0.0495 |
| CN(CC(O)CN1CCN(CCCC(c2ccc(F)cc2)c2ccc(F)cc2)CC1)c1ccccc1 (stereo not shown) [Compound 6, 1-[4,4-bis(4-fluorophenyl)-butyl]-4-[2-hydroxy-3-(N-methyl-N-phenylamino)-propyl]piperazine.2C4H4O4] |  | 0.0349 |
| CC(=O)OC(CNc1ccccc1)CN1CCN(CCCC(c2ccc(F)cc2)c2ccc(F)cc2)CC1 (stereo not drawn) [Compound 7, l-(2-acetoxy-3-phenylamino-propyl)-4-[4,4-bis(4-fluorophenyl)butyl]piperazine.2C4H4O4] |  | 0.0412 |
| COC(CNc1ccccc1)CN1CCN(CCCC(c2ccc(F)cc2)c2ccc(F)cc2)CC1 (stereo not shown) [Compound 8, 1-[4,4-bis(4-fluorophenyl)-butyl]-4-(2-methoxy-3-phenylaminopropyl)piperazine.2HCl] |  | 0.0237 |
| OC(CNc1ccc(F)cc1)CN1CCN(CCCC(c2ccc(F)cc2)c2ccc(F)cc2)CC1 (stereo not shown) [Compound 9, 1-[4,4-bis(4-fluorophenyl)-butyl]-4-[3-(4-fluorophenylamino)-2-hydroxypropyl]-piperazine.2HCl] |  | 0.0468 |
| COc1cc(NCC(O)CN2CCN(CCCC(c3ccc(F)cc3)c3ccc(F)cc3)CC2)cc(OC)c1OC (stereo not shown) [Compound 11, 1-[4,4-bis(4-fluorophenyl)-butyl]-4-[2-hydroxy-3-(3,4,5-trimethoxyphenylamino)-propyl]piperazine.2C4H4O4] |  | 0.197 |
| COc1ccc(NCC(O)CN2CCN(CCCC(c3ccc(F)cc3)c3ccc(F)cc3)CC2)cc1 (stereo not shown) [Compound 13, 1-[4,4-bis(4-fluorophenyl)-butyl]-4-[2-hydroxy-3-(4-methoxyphenylamino)propyl]-piperazine.2HCl] |  | 0.105 |
| OC(CNc1ccncc1)CN1CCN(CCCC(c2ccc(F)cc2)c2ccc(F)cc2)CC1 (stereo not shown) [Compound 17, 1-[4,4-bis(4-fluorophenyl)-butyl)-4-[2-hydroxy-3-(4-pyridylamino)propyl]-piperazine.2C4H4O4] |  | 0.045 |
| OC(CNc1ccccc1)CN1CCN(CCC(c2ccc(F)cc2)c2ccc(F)cc2)CC1 (stereo not shown) [Compound 18, 1-[3,3-bis(4-fluorophenyl)-propyl]-4-[2-hydroxy-3-phenylaminopropyl)piperazine] |  | 0.015 |
| OC(CNc1ccccc1)CN1CCN(CC(c2ccccc2)c2ccccc2)CC1 (stereo not shown) [Compound 19, 1-[2,2-diphenylethyl)-4-(2-hydroxy-3-phenylamino-propyl)piperazine.2HCl] |  | 0.0722 |
| O=[N+]([O-])c1ccc(NCC(O)CN2CCN(CCCC(c3ccc(F)cc3)c3ccc(F)cc3)CC2)cc1 (stereo not shown) [Compound 20, 1-[4,4-bis(4-fluorophenyl)butyl]-4-[2-hydroxy-3-(4-nitrophenylamino)propyl]-piperazine.2HCl] |  | 0.0558 |
| OC(CNc1ccccc1)CN1CCN(CCCCC(c2ccc(F)cc2)c2ccc(F)cc2)CC1 (stereo not shown) [Compound 21, 1-[5,5-bis(4-flurophenyl)-pentyl]-4-(2-hydroxy-3-phenylaminopropyl)piperazine.2HCl] |  | 0.0412 |
| CC(C)(C)c1cc(NCC(O)CN2CCN(CCCC(c3ccc(F)cc3)c3ccc(F)cc3)CC2)cc(C(C)(C)C)c1O (stereo not shown) [Compound 22, 1-[4,4-bis(4-flurophenyl)-butyl]-4-[3-(3,5-di-tert-butyl-4-hydroxyphenylamino)-2-hydroxypropyl]piperazine..3C4H4O4] |  | 0.306 |
| Nc1ccc(NCC(O)CN2CCN(CCCC(c3ccc(F)cc3)c3ccc(F)cc3)CC2)cc1 (stereo not shown) [Compound 23, 1-[3-(4-aminophenylamino)-2-hydroxypropyl]-4-[4,4-bis(4-fluorophenyl)butyl]-piperazine.3C4H4O4] |  | 0.534 |
| Oc1ccc(NCC(O)CN2CCN(CCCC(c3ccc(F)cc3)c3ccc(F)cc3)CC2)cc1 (stereo not shown) [Compound 25, 1-[4,4-bis(4-flurophenyl)-butyl]-4-[2-hydroxy-3-(4-hydroxyphenylamino)propyl]-piperazine.2C4H4O4] |  | 0.0237 |
| COC(=O)[C@H]1[C@@H](c2ccccc2)C[C@@H]2CC[C@H]1N2C [WIN35,065-2, reference compound] |  | 0.118 |

— patent publication US6100280A, “Narcotic antagonist” (Pola Chemical Industries, Inc., priority 1995, dated 2000)
